Results on 8 molecules are retold here after patent US4771046A, “Carbapenem derivatives” (Sankyo Company, Limited, priority 1985, dated 1988).

Each structure is given as a SMILES string. Values after ≈ are worked out from the molar mass of the structure shown. Some results are limits rather than exact numbers.

Data set [1] has as its system Proteus vulgaris 1420. The experiment in a line: Minimum inhibitory concentration, agar plate dilution method. It is filed as cell-based. From the text:
(§1) Table 2 sets out the activities of six of the compounds of the present invention against various bacteria, in terms of their minimal inhibitory concentrations (μg/ml). These compounds are identified by the same numbers as used in Table 1 above.
(§2) Minimum Inhibitory Concentrations (μg/ml)
(§3) In the compounds used in Table 2, compounds 1, 15 and 27 have the (5R,6S) configuration, and compounds 2, 16 and 28 have the (1R,5S,6S) configuration. In all six of the compounds, the configuration of the hydroxy group in the side-chain at position 6 is (1R).

The test system of data set [2] is Staphylococcus aureus 209P. Described as above. It is filed as cell-based.
From the text: as §1, §2, §3

Data set [3] has as its system Klebsiella pneumoniae 846. The data set is described as above. Format: cell-based.
From the text: as §1, §2, §3

Data set [4] relates to Enterobacter cloacae 963. The description is as above. It is filed as cell-based.
From the text: as §1, §2, §3

Data set [5] concerns Escherichia coli 609. Described as above. Format: cell-based.
From the text: as §1, §2, §3

For data set [6], the system named is Klebsiella pneumoniae 806. Described as above. It is filed as cell-based.
From the text: as §1, §2, §3

For data set [7], the system named is Staphylococcus aureus 56. Described as above. It is filed as cell-based.
From the text: as §1, §2, §3

Data set [8] concerns Serratia marcescens 1184. The data set is described as above. Format: cell-based.
From the text: as §1, §2, §3

The test system of data set [9] is Escherichia coli NIHJ. Described as above. It is filed as cell-based.
From the text: as §1, §2, §3

In data set [10] the test system is mice. Kind of data set: Toxicity in mice (survival). Format: in vivo.
In data set [11] the test system is Salmonella enteritidis. Kind of data set: Minimum inhibitory concentration, agar plate dilution method. It is filed as cell-based. The note with it: Salmonella enterica.
From the text: as §1, §2, §3

Data set [12] concerns dehydropeptidase I. Conditions: in vivo in mammals; cited from earlier work.
The conditions of data set [13]: cited from earlier work.

By MIC is commonly meant the lowest concentration found to suppress growth. For the molecule `C[C@@H](O)[C@H]1C(=O)N2C(C(=O)O)=C(SCC(=N)N3CC[C@@H](OC(N)=O)C3)C[C@H]12` [Compound No. 15, (5R,6S)-2-{2-[(3R)-3-Carbamoyloxypyrrolidin-1-yl]-2-iminoethylthio}-6-[(1R)-1-hydroxyethyl]-1-carbapen-2-em-3-carboxylic acid], the MIC in data set [1] is 1.5 µg/mL (≈ 3.76 µM); in data set [2], at most 0.01 µg/mL; in data set [3], 0.05 µg/mL (≈ 0.125 µM); in [4] it was 1.5 µg/mL (≈ 3.76 µM); in data set [5] it was 0.1 µg/mL (≈ 0.251 µM); in [6], 0.1 µg/mL (≈ 0.251 µM). Besides, the MIC in data set [7] worked out at 0.02 µg/mL (≈ 0.0502 µM); in data set [8], 0.1 µg/mL (≈ 0.251 µM); in [9], 0.1 µg/mL (≈ 0.251 µM). Further, the “dosage at which mice survive” value in [10] (mice) was “above 2,000 mg/kg”.
`C[C@@H](O)[C@H]1C(=O)N2C(C(=O)O)=C(SCC(=N)N3CCNC(=O)C3)C[C@H]12` [Compound No. 1, (5R,6S)-2-[2-(3-Oxopiperazin-1-yl)-2-iminoethylthio]-6-[(1R)-1-hydroxyethyl]-1-carbapen-2-em-3-carboxylic acid]: the MIC was 1.5 µg/mL (≈ 4.07 µM) in data set [1]; at most 0.01 µg/mL in data set [2]; 0.1 µg/mL (≈ 0.271 µM) in data set [3]; 0.8 µg/mL (≈ 2.17 µM) in [4]; 0.4 µg/mL (≈ 1.09 µM) in [5]; 0.1 µg/mL (≈ 0.271 µM) in data set [11]. Also, the MIC in data set [6] is 0.2 µg/mL (≈ 0.543 µM); in data set [7] it was 0.05 µg/mL (≈ 0.136 µM); in data set [8] it was 0.2 µg/mL (≈ 0.543 µM); in [9] it was 0.1 µg/mL (≈ 0.271 µM).
As for `C[C@@H](O)[C@H]1C(=O)N2C(C(=O)O)=C(SCCN)C[C@H]12` [thienamycin, 2-(2-aminoethylthio)-6-(1-hydroxyethyl)carbapen-2-em-3-carboxylic acid], the “inactivation by dehydropeptidase I” value in data set [12] is “inactivated in vivo in mammals by dehydropeptidase I”. The “chemical stability in the human body” value in data set [13] was “poor”.
For the molecule `C[C@@H](O)[C@H]1C(=O)N2C(C(=O)O)=C(SCC(=N)N3CC[C@@H](OC(N)=O)C3)[C@H](C)[C@H]12` [Compound No. 16, (1R,5S,6S)-2-{2-[(3R)-3-Carbamoyloxypyrrolidin-1-yl]-2-iminoethylthio}-6-[(1R)-1-hydroxyethyl]-1-methyl-1-carbapen-2-em-3-carboxylic acid], the MIC in [1] was 3.1 µg/mL (≈ 7.52 µM); in [2], at most 0.01 µg/mL; in data set [3], 0.1 µg/mL (≈ 0.242 µM); in data set [4], 0.8 µg/mL (≈ 1.94 µM); in data set [5], 0.1 µg/mL (≈ 0.242 µM); in data set [6], 0.05 µg/mL (≈ 0.121 µM). For the same molecule, the MIC in [7] was found to be 0.05 µg/mL (≈ 0.121 µM); in data set [8], 0.1 µg/mL (≈ 0.242 µM); in data set [9], 0.05 µg/mL (≈ 0.121 µM).
Regarding `C[C@@H](O)[C@H]1C(=O)N2C(C(=O)O)=C(SCC(=N)N3CCC(=NO)CC3)[C@H](C)[C@H]12` [Compound No. 28, (1R,5S,6S)-2-[2-(4-Hydroxyiminopiperidin-1-yl)-2-iminoethylthio]-6-[(1R)-1-hydroxyethyl]-1-methyl-1-carbapen-2-em-3-carboxylic acid], the MIC in [1] was 1.5 µg/mL (≈ 3.78 µM); in data set [2], at most 0.01 µg/mL; in data set [3] it was 0.05 µg/mL (≈ 0.126 µM); in data set [4], 0.4 µg/mL (≈ 1.01 µM); in data set [5], 0.1 µg/mL (≈ 0.252 µM); in data set [6], 0.05 µg/mL (≈ 0.126 µM). Besides, the MIC in [7] turned out to be 0.05 µg/mL (≈ 0.126 µM); in [8] it was 0.1 µg/mL (≈ 0.252 µM); in [9], 0.02 µg/mL (≈ 0.0504 µM).
Consider `C[C@@H](O)[C@H]1C(=O)N2C(C(=O)O)=C(SCC(=N)N3CCNC(=O)C3)[C@H](C)[C@H]12` [Compound No. 2, (1R,5S,6S)-2-[2-(3-Oxopiperazin-1-yl)-2-iminoethylthio]-6-[(1R)-1-hydroxyethyl]-1-methyl-1-carbapen-2-em-3-carboxylic acid], for which the MIC is 0.4 µg/mL (≈ 1.05 µM) in data set [1]; at most 0.01 µg/mL in data set [2]; 0.05 µg/mL (≈ 0.131 µM) in data set [3]; 0.4 µg/mL (≈ 1.05 µM) in [4]; 0.05 µg/mL (≈ 0.131 µM) in data set [5]; 0.05 µg/mL (≈ 0.131 µM) in [11]. For the same molecule, the MIC worked out at 0.02 µg/mL (≈ 0.0523 µM) in data set [6], 0.05 µg/mL (≈ 0.131 µM) in data set [7], 0.1 µg/mL (≈ 0.261 µM) in [8] and 0.02 µg/mL (≈ 0.0523 µM) in [9].
As to `C[C@@H](O)[C@H]1C(=O)N2C(C(=O)O)=C(SCC(=N)N3CCC(=NO)CC3)C[C@H]12` [Compound No. 27, (5R,6S)-2-[2-(4-Hydroxyiminopiperidin-1-yl)-2-iminoethylthio]-6-[(1R)-1-hydroxyethyl]-1-carbapen-2-em-3-carboxylic acid], the MIC was 0.8 µg/mL (≈ 2.09 µM) in [1]; at most 0.01 µg/mL in data set [2]; 0.05 µg/mL (≈ 0.131 µM) in data set [3]; 0.8 µg/mL (≈ 2.09 µM) in data set [4]; 0.1 µg/mL (≈ 0.261 µM) in [5]; 0.1 µg/mL (≈ 0.261 µM) in data set [6]. In addition, the MIC in [7] worked out at 0.02 µg/mL (≈ 0.0523 µM); in data set [8], 0.1 µg/mL (≈ 0.261 µM); in [9], 0.1 µg/mL (≈ 0.261 µM). For the same molecule, the “dosage at which mice survive” value in [10] (mouse, in vivo) is listed as “above 2,000 mg/kg”.
For `C[C@@H](O)[C@H]1C(=O)N2C(C(=O)O)=C(SCC(=N)N3CCN(C)C(=O)C3)C[C@H]12` [Compound No. 3, (5R,6S)-2-[2-(4-Methyl-3-oxopiperazin-1-yl)-2-iminoethylthio]-6-[(1R)-1-hydroxethyl]-1-carbapen-2-em-3-carboxylic acid], the “dosage at which mice survive” value in data set [10] (mice) is on record as “above 2,000 mg/kg”.
